Laboratory results as given in PubChem BioAssay (NCI).
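Cultured in 96-well plates, cells were exposed to test compound for 48 hours across five concentrations. Definition used: TGI = concentration required for complete inhibition of growth.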

Key:
Test in all cases: DTP human tumour cell line panel, 48 h
SNB-19 CNS = tested on: SNB-19 CNS
M19-MEL melanoma = tested on: M19-MEL melanoma
XF 498 CNS = tested on: XF 498 CNS
HOP-18 NSCLC = tested on: HOP-18 NSCLC
DMS 273 small cell lung = tested on: DMS 273 small cell lung
SNB-78 CNS = tested on: SNB-78 CNS
DLD-1 colon = tested on: DLD-1 colon
KM20L2 colon = tested on: KM20L2 colon
DMS 114 small cell lung = tested on: DMS 114 small cell lung
RXF-631 renal = tested on: RXF-631 renal
LXFL 529 NSCLC = tested on: LXFL 529 NSCLC

Structure (SMILES): Cc1ccc(S(=O)(=O)N2CCSCCSCCSCCN(S(=O)(=O)c3ccc(C)cc3)CC2)cc1
- TGI (SNB-19 CNS): > 100 µM

Structure (SMILES): CN(N=O)c1nc2c(C(N)=O)ncn2s1
- TGI (SNB-19 CNS): > 100 µM

Structure (SMILES): CSc1nc(=O)cnn1C
- TGI (SNB-19 CNS): > 100 µM

Structure (SMILES): O=C1NC2(CCNCC2)Oc2ccccc21
- TGI (SNB-19 CNS): > 100 µM

Structure (SMILES): Cc1c(/C=N/NC(=S)N2CCCCC2)c(=O)n(-c2ccccc2)n1C
- TGI (SNB-19 CNS): > 100 µM

Structure (SMILES): CC(C)[C@H]1NC(=O)[C@H]2N=C(S[C@H]2C)[C@@H]2CCCN2C(=O)[C@H](Cc2ccccc2)NC(=O)[C@@H]2CSC(=N2)[C@@H](Cc2ccccc2)NC(=O)[C@@H]2CSC1=N2
- TGI (SNB-19 CNS): > 50 µM

Structure (SMILES): COc1cccc(C23CCN(C)C(CC(O)C2)C3)c1OC (centres undefined)
- TGI (SNB-19 CNS): > 100 µM

Structure (SMILES): COc1cc([C@@H]2c3cc4c(cc3[C@@H](Nc3ccc(Cl)cc3C(=O)c3ccccc3)[C@H]3COC(=O)[C@H]23)OCO4)cc(OC)c1OC
- TGI (SNB-19 CNS): > 85.1 µM

Structure (SMILES): CC(=O)Nc1cccc(N2C(=O)/C(=C\c3cccc(Oc4ccccc4)c3)SC2c2ccccc2)c1 (centres undefined)
- TGI (SNB-19 CNS): > 100 µM

Structure (SMILES): CO/C(=N\N=C\c1ccc(Cl)c(Cl)c1)c1ccncc1
- TGI (SNB-19 CNS): > 10 µM

Structure (SMILES): COC(=O)/C=C/[C@@H]1[C@H](C)N1S(=O)(=O)c1ccc(C)cc1 (some centres undefined)
- TGI (SNB-19 CNS): > 100 µM

Structure (SMILES): CC(Oc1ccccc1Cl)C(=O)NN1C(=O)CC(=O)N(c2ccc(Cl)cc2)C1=S (centres undefined)
- TGI (SNB-19 CNS): > 100 µM

Structure (SMILES): COC(=O)c1ccc2c(c1)CC1(C2)Cc2ccccc2C1=O (centres undefined)
- TGI (SNB-19 CNS): > 100 µM

Structure (SMILES): CC(=O)[C@H]1[C@H](O)C[C@@]2(C)[C@@H]3CCc4cc(O)c(OC5OC(CO)C(O)C(O)C5O)cc4C3(C)C(=O)C[C@]12C (some centres undefined)
- TGI (SNB-19 CNS): > 100 µM

Structure (SMILES): O=C1NC(N/N=C\c2ccccc2)=N/C1=C/c1ccccc1
- TGI (SNB-19 CNS): 73.6 µM

Structure (SMILES): C[C@@H]1CC[C@H]2[C@H](C)C(OC3O[C@@H]4O[C@@]5(C)CC[C@H]6[C@H](C)CC[C@@H]([C@@H]3C)[C@@]46O5)O[C@@H]3O[C@@]4(C)CC[C@@H]1[C@]32O4 (some centres undefined)
- TGI (SNB-19 CNS): > 100 µM

Structure (SMILES): COc1ccc(C2Cc3cc(OC)c(OC)c(OC)c3C2)cc1 (centres undefined)
- TGI (M19-MEL melanoma): > 100 µM
- TGI (XF 498 CNS): 54.5 µM
- TGI (HOP-18 NSCLC): > 100 µM
- TGI (DMS 273 small cell lung): > 100 µM
- TGI (SNB-19 CNS): > 100 µM
- TGI (SNB-78 CNS): > 100 µM
- TGI (DLD-1 colon): > 100 µM
- TGI (KM20L2 colon): > 100 µM
- TGI (DMS 114 small cell lung): > 100 µM

Structure (SMILES): Cc1cc(O)c(/C=N/C(=S)Nc2ccc(S(N)(=O)=O)cc2)c(=O)o1
- TGI (SNB-19 CNS): > 100 µM

Structure (SMILES): COc1cc(OC)c2c(=O)c3cccc(C)c3n(C)c2c1
- TGI (SNB-19 CNS): > 100 µM

Structure (SMILES): CC(C)[Si]1(C(C)C)OCC2OC(n3ccc(=O)[nH]c3=O)C([Se]c3ccccc3)C2O[Si](C(C)C)(C(C)C)O1 (centres undefined)
- TGI (SNB-19 CNS): 0.677 µM

Structure (SMILES): CCCCCCCCCCCCOCC1(COCCCCCCCCCCCC)COC(c2ccc(N)cc2)OC1
- TGI (SNB-19 CNS): > 100 µM

Structure (SMILES): Cc1ccc(-c2cc(-c3ccc(Cl)cc3)nc(/N=C3\C(=O)N(CN(C)C)c4ccccc43)n2)cc1
- TGI (SNB-19 CNS): > 100 µM

Structure (SMILES): O=[N+]([O-])/C(Cl)=C(/C(Cl)=C(Cl)Cl)N1CCOCC1
- TGI (SNB-19 CNS): 38.3 µM

Structure (SMILES): CCc1n[nH]c(=O)n1/N=C(\C)c1ccccc1
- TGI (SNB-19 CNS): > 100 µM

Structure (SMILES): O=[N+]1[C@H](c2ccccc2)[C@H](c2ccccc2)N1[O-]
- TGI (SNB-19 CNS): 35.1 µM

Structure (SMILES): CC(C)(C)OC(=O)CCCCCNC(=O)CCCCCNC(=O)CCC(CN(CC(=O)OCc1ccccc1)CC(=O)OCc1ccccc1)N(CC(=O)OCc1ccccc1)CC(=O)OCc1ccccc1 (centres undefined)
- TGI (SNB-19 CNS): > 100 µM

Structure (SMILES): COc1cc([C@@H]2c3cc4c(cc3[C@@H](NCc3cccc(C#N)c3)C3COC(=O)[C@@H]32)OCO4)cc(OC)c1O (some centres undefined)
- TGI (RXF-631 renal): 4.64 µM
- TGI (M19-MEL melanoma): 50.3 µM
- TGI (HOP-18 NSCLC): > 100 µM
- TGI (DMS 273 small cell lung): 5.89 µM
- TGI (SNB-19 CNS): 7.74 µM
- TGI (DLD-1 colon): 12.7 µM
- TGI (KM20L2 colon): 4.63 µM
- TGI (LXFL 529 NSCLC): > 100 µM
- TGI (DMS 114 small cell lung): 9.19 µM

Structure (SMILES): CCCCCCCCCCCCCCCCNC(=O)/C(=C\c1ccc(Cl)c(Cl)c1)NC(=O)c1ccccc1
- TGI (SNB-19 CNS): > 100 µM

Structure (SMILES): COC(=O)C(=O)Nc1cc2c3c(c1)Oc1cccc4c1C3(C)c1c(cccc1O2)O4
- TGI (SNB-19 CNS): > 100 µM

Structure (SMILES): O=c1[nH][nH]c(=O)c2c1ccc1oc3ccccc3c12
- TGI (SNB-19 CNS): > 100 µM

Structure (SMILES): Cc1sc2nc3n(c(=O)c2c1C)N=CN(c1ccc(Cl)cc1)C3
- TGI (SNB-19 CNS): > 100 µM

Structure (SMILES): CN1CCc2ccccc2C(C(=O)c2ccc3c(c2)OCO3)C1=O (centres undefined)
- TGI (RXF-631 renal): > 100 µM
- TGI (M19-MEL melanoma): > 100 µM
- TGI (XF 498 CNS): > 100 µM
- TGI (HOP-18 NSCLC): > 100 µM
- TGI (DMS 273 small cell lung): > 100 µM
- TGI (SNB-19 CNS): > 100 µM
- TGI (DLD-1 colon): > 100 µM
- TGI (KM20L2 colon): > 100 µM
- TGI (LXFL 529 NSCLC): > 100 µM
- TGI (DMS 114 small cell lung): > 100 µM

Structure (SMILES): O=C(Nc1ccccc1)OCCN=C1c2ccccc2CCc2ccccc21
- TGI (SNB-19 CNS): 43.7 µM

Structure (SMILES): CC(C)(C)OC(=O)N1CCCC1C(=O)NC(c1ccccc1)c1ccccc1 (centres undefined)
- TGI (SNB-19 CNS): > 100 µM

Structure (SMILES): O=C1Cc2cn[nH]c2-c2ccccc2N1
- TGI (SNB-19 CNS): > 100 µM

Structure (SMILES): Cc1[nH]c(-c2ccccc2)c2nc(N(C)C)oc(=O)c12
- TGI (SNB-19 CNS): > 100 µM

Structure (SMILES): COc1ccccc1-c1c(C#N)c(N)[nH]c(=S)c1C#N
- TGI (SNB-19 CNS): > 100 µM

Structure (SMILES): CCOC(=O)C1=C(OC(OCC)C(CC)[Se]c2ccccc2)CCC1 (centres undefined)
- TGI (RXF-631 renal): 32.9 µM
- TGI (M19-MEL melanoma): 30.8 µM
- TGI (XF 498 CNS): 46.8 µM
- TGI (HOP-18 NSCLC): 69.5 µM
- TGI (DMS 273 small cell lung): 29.2 µM
- TGI (SNB-19 CNS): > 100 µM
- TGI (SNB-78 CNS): 97.4 µM
- TGI (DLD-1 colon): 45.4 µM
- TGI (KM20L2 colon): > 100 µM
- TGI (LXFL 529 NSCLC): 77 µM
- TGI (DMS 114 small cell lung): 15.6 µM

Structure (SMILES): CC(C)CC(N)C(=O)NC(C(=O)NC(CCCNC(=N)N)C(=O)NC(CS)C(=O)NC1CSCC(C(=O)NC(Cc2ccccc2)C(=O)NC(C(=O)NC(CCCNC(=N)N)C(=O)O)C(C)C)NC(=O)C2CCCN2C(=O)C(CCCCN)NC(=O)C2CCCN2C(=O)C2CCCN2C(=O)C(Cc2ccc(O)cc2)NC(=O)C(CO)NC(=O)C(CCCCN)NC(=O)C(C(C)O)NC(=O)C(Cc2c[nH]c3ccccc23)NC1=O)C(C)C (centres undefined)
- TGI (SNB-19 CNS): > 25 µM

Structure (SMILES): COC(=O)/C=C(\C)CCC1SC1(C)C (centres undefined)
- TGI (M19-MEL melanoma): > 100 µM
- TGI (XF 498 CNS): > 100 µM
- TGI (HOP-18 NSCLC): > 100 µM
- TGI (DMS 273 small cell lung): > 100 µM
- TGI (SNB-19 CNS): > 100 µM
- TGI (SNB-78 CNS): > 100 µM
- TGI (DLD-1 colon): > 100 µM
- TGI (KM20L2 colon): > 100 µM
- TGI (LXFL 529 NSCLC): > 100 µM
- TGI (DMS 114 small cell lung): > 100 µM
